Results: US9102656B2, “Use of rosuvastatin lactols as medicaments” (RedX Pharma Limited, priority 2009, dated 2015)
Structures can show the parent of a compound that is named as a salt.

Key:
HMG-CoA reductase = HMG-CoA reductase (Homo sapiens (Human), UniProt P04035); experiment: HMG-CoA Reductase assay kit (spectrophotometric NADPH absorbance at 340 nm); format: biochemical; conditions: inhibitor concentrations varied from 0 nM to 50 nM; 37° C.
Method: All assays were carried out in a reaction buffer containing […] KxPO4 at pH 7.2, 1 mM EDTA, 500 mM KCl and 1 mg/ml BSA. The concentrations of NADPH and HMG-CoA were both 200 μM. […] Absorbance readings were then taken every 20 seconds for 600 seconds. […] After these were identified, assays were carried out varying their concentrations from 0 nM to 50 nM allowing IC50 values to be calculated.
Add a buffer to all samples. • b. […] Add the reconstituted NADPH to all samples. • d. Add Substrate Solution (HMG-CoA) to all samples. • e. […] Mix the samples thoroughly. 3. The kinetics programme was started immediately.

plasma triglycerides = experiment: Rat plasma triglyceride levels after 3 or 5 days BID oral treatment; format: in vivo; conditions: male SD rats, 25 mg/kg po BID for 3 or 5 days, plasma 16 hours after last dose
Method: The measurement of the change in rat plasma triglyceride levels is considered to be a fair test for determining HMG CoA reductase activity.
112 male SD rats (Harlan) were housed in groups of 6 under a 12 h light dark cycle (lights on 07.00 h) with free access to food (normal laboratory chow) and water. Animals between 148-183 g were allocated to treatment groups of 8 balanced by body weight and treatments were balanced across cages.
Four rosuvastatin analogues were made up in 10% PEG300/10% cremophor/80% methyl cellulose (0.5%) (vehicle 1) to make a 5 mg/mL solution. The rosuvastatin compounds used were:
Rosuvastatin Lactol n-propyl acetal (diastereomeric ratio 2/1) (BPL001); Rosuvastatin lactol n-propyl acetal nicotinoyl ester (diastereomeric ratio 2/1) (BPL002); Rosuvastatin lactol iso-propyl acetal benzyl ether (BPL003); and Rosuvastatin lactol methyl acetal nicotinoyl ester (diastereomeric ratio 2/1) (BPL004).
Rosuvastatin was formulated in 0.5% Tween in 0.5% methyl cellulose (vehicle 2) at 5 mg/kg as a suspension.
Rats were orally dosed with vehicle 1, one of the four rosuvastatin analogues in vehicle 1 (25 mg/kg), vehicle 2 or rosuvastatin in vehicle 2 (25 mg/kg po), BID for 3 or 5 days. […]
Data for each time-point were analysed by 1-way ANOVA and post-hoc Dunnett's test.

Sequence of HMG-CoA reductase (P04035 340-888): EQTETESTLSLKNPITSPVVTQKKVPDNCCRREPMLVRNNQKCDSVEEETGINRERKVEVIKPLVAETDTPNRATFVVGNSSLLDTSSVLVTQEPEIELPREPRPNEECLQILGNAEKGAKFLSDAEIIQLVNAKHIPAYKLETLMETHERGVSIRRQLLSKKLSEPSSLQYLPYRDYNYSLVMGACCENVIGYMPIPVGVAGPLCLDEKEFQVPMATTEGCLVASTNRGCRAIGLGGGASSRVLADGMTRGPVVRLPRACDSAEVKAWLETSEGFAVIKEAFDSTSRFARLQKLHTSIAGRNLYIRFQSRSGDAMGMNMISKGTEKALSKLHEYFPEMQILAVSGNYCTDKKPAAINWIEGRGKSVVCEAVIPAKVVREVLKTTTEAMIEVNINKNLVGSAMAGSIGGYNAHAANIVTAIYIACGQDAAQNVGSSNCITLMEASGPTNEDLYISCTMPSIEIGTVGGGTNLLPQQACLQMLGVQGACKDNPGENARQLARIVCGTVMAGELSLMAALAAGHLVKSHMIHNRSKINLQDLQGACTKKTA

Row | SMILES | IC50 (HMG-CoA reductase) [nM] | effect on plasma triglycerides (plasma triglycerides)
1 | COC1C[C@H](OC(=O)c2cccnc2)C[C@@H](/C=C/c2c(-c3ccc(F)cc3)nc(N(C)S(C)(=O)=O)nc2C(C)C)O1 (stereo partly drawn) | < 1 | –
2 | CC(C)c1nc(N(C)S(C)(=O)=O)nc(-c2ccc(F)cc2)c1/C=C/[C@@H](O)C[C@@H](O)CC(=O)O [Rosuvastatin calcium salt] | 4 | –
3 | CC(C)c1nc(N(C)S(C)(=O)=O)nc(-c2ccc(F)cc2)c1C=CC(O)CC(O)CC(=O)O (stereo not drawn) [rosuvastatin, 7-[4-(4-fluorophenyl)-6-(1-methylethyl)-2-(methyl-methylsulfonyl-amino)-pyrimidin-5-yl]-3,5-dihydroxy-hept-6-enoic acid] | – | marked reduction in plasma triglycerides
